Reference: ChEMBL document CHEMBL4270670 (J Med Chem, 2018)

What was measured:
[1] = in vitro; settings: human, plasma
[2] = test system: Influenza A virus; assay: Antiviral activity against Influenza A virus H5N2 infected in specific pathogen free embryonated egg assessed as survival rate at 0.156 mM preincubated for 1 hr prior to inoculation measured after 48 hrs (reference value: 0%); format: functional
[3] = test system: Rattus norvegicus; assay: Tmax in Sprague-Dawley rat at 20 mg/kg, po by LC-MS analysis; format: ADME, organism-based; settings: in vivo
[4] = Oral bioavailability in Sprague-Dawley rat at 20 mg/kg by LC-MS analysis; format: ADME, organism-based; settings: in vivo
[5] = test system: Influenza A virus; assay: Antiviral activity against Influenza A virus H5N2 infected in specific pathogen free embryonated egg assessed as survival rate at 10 mM preincubated for 1 hr prior to inoculation measured after 48 hrs (reference value: 0%); format: functional
[6] = in vitro; settings: human, liver microsomes
[7] = test system: Influenza A virus; assay: Antiviral activity against Influenza A virus H5N2 infected in specific pathogen free embryonated egg assessed as survival rate at 0.156 mM preincubated for 1 hr prior to inoculation measured after 72 hrs (reference value: 0%); format: functional
[8] = in vivo; settings: Sprague-Dawley, rat, po, 20 mg/kg
[9] = test system: Rattus norvegicus; assay: Half life in Sprague-Dawley rat at 20 mg/kg, po by LC-MS analysis; format: ADME, organism-based; settings: in vivo
[10] = test system: Influenza A virus; assay: Antiviral activity against Influenza A virus H5N2 infected in specific pathogen free embryonated egg assessed as survival rate at 0.039 mM preincubated for 1 hr prior to inoculation measured after 72 hrs (reference value: 0%); format: functional
[11] = test system: Mus musculus; assay: Acute toxicity in Kunming mouse assessed as gross lesions at 2000 mg/kg, ig after 1 week; format: organism-based; settings: in vivo, po, 168 h
[12] = test system: Rattus norvegicus; assay: Tmax in Sprague-Dawley rat at 2 mg/kg, iv by LC-MS analysis; format: ADME, organism-based; settings: in vivo
[13] = organism: Rattus norvegicus; settings: in vivo, po, 20 mg/kg
[14] = in vitro; settings: human, plasma; remark: listed apart in the source
[15] = in vitro; settings: human, liver microsomes; remark: listed apart in the source
[16] = organism: Rattus norvegicus; settings: in vivo, iv, 2 mg/kg
[17] = test system: Rattus norvegicus; assay: Cmax in Sprague-Dawley rat at 20 mg/kg, po by LC-MS analysis; format: ADME, organism-based; set-up: dose 20 mg/kg, route oral; settings: in vivo
[18] = test system: Influenza A virus; assay: Antiviral activity against Influenza A virus H5N2 infected in specific pathogen free embryonated egg assessed as survival rate at 0.039 mM preincubated for 1 hr prior to inoculation measured after 48 hrs (reference value: 0%); format: functional
[19] = test system: Rattus norvegicus; assay: Bioavailability in Sprague-Dawley rat at 2 mg/kg, iv by LC-MS analysis; format: ADME, organism-based; settings: in vivo
[20] = MRT (0 to infinity) in Sprague-Dawley rat at 2 mg/kg, iv by LC-MS analysis; format: ADME, organism-based; settings: in vivo
[21] = test system: Rattus norvegicus; assay: Clearance in Sprague-Dawley rat at 2 mg/kg, iv by LC-MS analysis; format: ADME, organism-based; settings: in vivo
[22] = in vitro; settings: human, plasma; remark: listed apart in the source
[23] = in vitro; settings: human, liver microsomes; remark: listed apart in the source
[24] = test system: Influenza A virus; assay: Antiviral activity against Influenza A virus H5N2 infected in specific pathogen free embryonated egg assessed as survival rate at 0.625 mM preincubated for 1 hr prior to inoculation measured after 72 hrs (reference value: 0%); format: functional
[25] = in vitro; settings: dog, MDCK cells
[26] = test system: Influenza A virus; assay: microbe, parasite or virus in culture; settings: MDCK, 48 h
[27] = test system: Rattus norvegicus; assay: Volume of distribution in Sprague-Dawley rat at 2 mg/kg, iv by LC-MS analysis; format: ADME, organism-based; settings: in vivo
[28] = test system: Influenza A virus; assay: microbe, parasite or virus in culture; settings: A/Puerto Rico/8/1934(H1N1), MDCK, 48 h
[29] = in vitro; settings: human, plasma; remark: listed apart in the source
[30] = test system: Rattus norvegicus; assay: Half life in Sprague-Dawley rat at 2 mg/kg, iv by LC-MS analysis; format: ADME, organism-based; settings: in vivo
[31] = test system: Mus musculus; assay: Acute toxicity in Kunming mouse at 2000 mg/kg, ig after 1 week; format: organism-based; settings: in vivo, po, 168 h
[32] = in vivo; settings: Sprague-Dawley, rat, iv, 2 mg/kg
[33] = test system: Influenza A virus; assay: Antiviral activity against Influenza A virus H5N2 infected in specific pathogen free embryonated egg assessed as survival rate at 10 mM preincubated for 1 hr prior to inoculation measured after 72 hrs (reference value: 0%); format: functional
[34] = test system: Influenza A virus; assay: Antiviral activity against Influenza A virus H5N2 infected in specific pathogen free embryonated egg assessed as survival rate at 0.625 mM preincubated for 1 hr prior to inoculation measured after 48 hrs (reference value: 0%); format: functional
[35] = test system: Influenza A virus; assay: Antiviral activity against Influenza A virus H5N2 infected in specific pathogen free embryonated egg assessed as survival rate at 2.5 mM preincubated for 1 hr prior to inoculation measured after 48 hrs (reference value: 0%); format: functional
[36] = MRT (0 to infinity) in Sprague-Dawley rat at 20 mg/kg, po by LC-MS analysis; format: ADME, organism-based; settings: in vivo
[37] = in vitro; settings: chicken, chicken embryo fibroblasts
[38] = test system: Influenza A virus; assay: Antiviral activity against Influenza A virus H5N2 infected in specific pathogen free embryonated egg assessed as survival rate at 2.5 mM preincubated for 1 hr prior to inoculation measured after 72 hrs (reference value: 0%); format: functional
[39] = in vitro; settings: human, liver microsomes; remark: listed apart in the source
[40] = in vitro; settings: human, plasma; remark: listed apart in the source
[41] = test system: Influenza B virus; settings: mdck
[42] = human, microsomes, 20 min

Structure (SMILES): CCC(CC)O[C@@H]1C=C(C(=O)O)C[C@H](NCc2ccc(Sc3ccccc3)cc2)[C@H]1NC(C)=O
- remaining at 2 h, 2 µM [1]: 91.6%
- survival at 156 µM [2]: 0%
- Tmax [3]: 0.83 h
- bioavailability [4]: 10.3%
- survival at 10000 µM [5]: 100%
- half-life at 2 uL [6]: > 2.42 h
- survival at 156 µM [7]: 0%
- AUC(0-t) [8]: 1500 ng·h/mL
- t1/2 [9]: 3.82 h
- survival at 39 µM [10]: 0%
- Activity [11]: Non-Toxic
- Tmax [12]: 4.98 min
- AUC [13]: 1558.63 ng·h/mL
- remaining at 0.5 h, 2 µM [14]: 100%
- microsomal CLint at 20 min, 2 uL [15]: < 9.6 µL/min/mg
- AUC [16]: 1464.41 ng·h/mL
- Cmax [17]: 407 µg/mL
- survival at 39 µM [18]: 0%
- F [19]: 100%
- MRT inf [20]: 2.03 h
- CL [21]: 1.41 mL/h/kg
- remaining at 1 h, 2 µM [22]: 100%
- remaining at 1 h, 2 uL [23]: 101%
- survival at 625 µM [24]: 0%
- CC50 at 48 h [25]: > 250 µM
- EC50 [26]: 71 µM
- Vd [27]: 3.51 L/kg
- EC50 [28]: 0.06 µM
- remaining at 10 min, 2 µM [29]: 102%
- t1/2 [30]: 1.76 h
- Activity [31]: Non-Toxic
- AUC(0-t) [32]: 1460 ng·h/mL
- survival at 10000 µM [33]: 60%
- survival at 625 µM [34]: 60%
- survival at 2500 µM [35]: 80%
- MRT inf [36]: 4.05 h
- CC50 at 48 h [37]: > 200 µM
- survival at 2500 µM [38]: 20%
- remaining at 1 h, 2 uL [39]: 115%
- half-life at 2 µM [40]: > 4.82 h
- EC50 [41]: 19 µM

Structure (SMILES): CCC(CC)O[C@@H]1C=C(C(=O)O)C[C@H](NCc2ccc(-c3ccc(SC)cc3)cc2)[C@H]1NC(C)=O
- CC50 at 48 h [37]: > 200 µM

Structure (SMILES): CCC(CC)O[C@@H]1C=C(C(=O)O)C[C@H](NCc2ccc(C(C)(C)C)cc2)[C@H]1NC(C)=O
- CC50 at 48 h [37]: > 200 µM

Structure (SMILES): CCC(CC)O[C@@H]1C=C(C(=O)O)C[C@H](NCc2ccc(SC3CCCC3)cc2)[C@H]1NC(C)=O
- CC50 at 48 h [37]: > 200 µM

Structure (SMILES): CCC(CC)Oc1cccc(CN[C@H]2CC(C(=O)O)=C[C@@H](OC(CC)CC)[C@@H]2NC(C)=O)c1
- CC50 at 48 h [37]: > 200 µM

Structure (SMILES): CCC(CC)O[C@@H]1C=C(C(=O)O)C[C@H](NCc2ccc(S(=O)(=O)c3ccccc3)cc2)[C@H]1NC(C)=O
- CC50 at 48 h [37]: > 200 µM

Structure (SMILES): CCC(CC)O[C@@H]1C=C(C(=O)O)C[C@H](NCc2ccc(OC)cc2)[C@H]1NC(C)=O
- CC50 at 48 h [25]: > 250 µM
- EC50 [26]: > 100 µM
- EC50 [28]: 3.7 µM
- CC50 at 48 h [37]: > 200 µM
- EC50 [41]: > 100 µM

Structure (SMILES): CCC(CC)O[C@@H]1C=C(C(=O)O)C[C@H](NCc2ccc(SC3CCCCC3)cc2)[C@H]1NC(C)=O
- CC50 at 48 h [25]: > 250 µM
- EC50 [26]: > 100 µM
- EC50 [28]: 17 µM
- CC50 at 48 h [37]: > 200 µM
- EC50 [41]: > 100 µM

Structure (SMILES): CCC(CC)O[C@@H]1C=C(C(=O)O)C[C@H](NCc2ccc(-c3csc4ccccc34)cc2)[C@H]1NC(C)=O
- CC50 at 48 h [37]: > 200 µM

Structure (SMILES): CCC(CC)O[C@@H]1C=C(C(=O)O)C[C@H](NCc2ccc(C(C)C)cc2)[C@H]1NC(C)=O
- CC50 at 48 h [37]: > 200 µM

Structure (SMILES): CCC(CC)O[C@@H]1C=C(C(=O)O)C[C@H](NCc2ccc(SCC(C)C)cc2)[C@H]1NC(C)=O
- CC50 at 48 h [37]: > 200 µM

Structure (SMILES): O=C(O)Cc1ccccc1Nc1c(Cl)cccc1Cl [DICLOFENAC]
- half-life at 2 uL [6]: 0.237 h
- microsomal CLint at 20 min, 2 uL [15]: 97.7 µL/min/mg
- remaining at 1 h, 2 uL [23]: 5.4%
- CLH [42]: 5.28 mL/h/kg
- remaining at 1 h, 2 uL [39]: 103%

Structure (SMILES): CCC(CC)O[C@@H]1C=C(C(=O)O)C[C@H](N)[C@H]1NC(C)=O [OSELTAMIVIR CARBOXYLATE]
- survival at 156 µM [2]: 0%
- survival at 10000 µM [5]: 60%
- survival at 156 µM [7]: 0%
- survival at 39 µM [10]: 0%
- survival at 39 µM [18]: 0%
- survival at 625 µM [24]: 0%
- CC50 at 48 h [25]: > 250 µM
- EC50 [26]: 1.2 µM
- EC50 [28]: 0.041 µM
- survival at 10000 µM [33]: 0%
- survival at 625 µM [34]: 0%
- survival at 2500 µM [35]: 20%
- CC50 at 48 h [37]: > 200 µM
- survival at 2500 µM [38]: 0%
- EC50 [41]: 2.9 µM

Structure (SMILES): CC(C)[N+](C)(CCOC(=O)C1c2ccccc2Oc2ccccc21)C(C)C.[Br-] [PROPANTHELINE BROMIDE]
- remaining at 0.5 h, 2 µM [14]: 19.1%
- remaining at 1 h, 2 µM [22]: 2.1%
- remaining at 10 min, 2 µM [29]: 54.9%
- half-life at 2 µM [40]: 0.18 h

Structure (SMILES): NC(=O)c1ncn([C@@H]2O[C@H](CO)[C@@H](O)[C@H]2O)n1 [RIBAVIRIN]
- CC50 at 48 h [37]: > 200 µM

Structure (SMILES): CC(=O)N[C@H]1[C@H]([C@H](O)[C@H](O)CO)OC(C(=O)O)=C[C@@H]1NC(=N)N [ZANAMIVIR]
- CC50 at 48 h [25]: > 250 µM
- EC50 [26]: 0.3 µM
- EC50 [28]: 0.038 µM
- CC50 at 48 h [37]: > 200 µM
- EC50 [41]: 0.9 µM
